Source: patent US20100093811A1 (priority 2007, published 2010)
Like-named read-outs stand apart in the source and are kept apart here.

Experiments:
wild-type HIV-1 protease = wild-type HIV-1 protease (Human immunodeficiency virus type 1 group M subtype B, UniProt P04585); experiment: Assay for inhibition of microbial expressed HIV protease; assay type: biochemical; settings: wild-type HIV-1 protease expressed in E. coli, peptide substrate, pH 5.5; read-out: Enzyme Inhibition - IC50
Protocol: Assay for Inhibition of Microbial Expressed HIV Protease
Inhibition studies of the reaction of the protease (which was expressed in Eschericia coli) with a peptide substrate [Val-Ser-Gln-Asn-(betanapthyl)Ala-Pro-Ile-Val]. The inhibitor is first preincubated with the enzyme in assay buffer (50 mM sodium acetate, pH 5.5, 100 mM NaCl, and 0.1% BSA) for 30 minutes at room temperature. Substrate is added to 440 micromolar in a total volume of 80 microliters containing 5 picomolar HIV-1 protease, and the reaction is incubated for 1 hour at 30° C. The reaction is quenched by addition of 120 microliters of 10% phosphoric acid, and product formation is determined after separation of product and substrate on a Vydac C18 column connected to an Alliance high performance liquid chromatography system (Waters Corporation). The extent of inhibition of the reaction is determined from the peak area of the products.

[1] = tested on: acute HIV infection of T-lymphoid cells; experiment: Assay for inhibition of HIV replication (spread assay); assay type: cell-based, HIV-1
Protocol: • Assay for Inhibition of HIV Replication
Assays for the inhibition of acute HIV infection of T-lymphoid cells were conducted in accordance with Vacca, J. P. et al., Proc. Natl. Acad. Sci. USA 1994, 91: 4096.

[2] = Human immunodeficiency virus 1, T-lymphoid, read-out: Spread - IC95
[3] = inhibition of HIV-1 replication, 10% FBS, read-out: Spread - IC95

For CC(C)CCN([C@@H](CCCCNC(=O)[C@@H](N)C(c1ccccc1)c1ccccc1)C(C)O)S(=O)(=O)c1ccc(N)cc1 (mixture of isomers) [Example A1, (2S)-2-amino-N-{5-[[(4-aminophenyl)sulfonyl]-(3-methylbutyl)amino]-6-hydroxyheptyl}-3,3-diphenylpropanamide], which IC50 (wild-type HIV-1 protease) is on record?
The IC50 was 0.43 nM.

What about the IC95 [1, 2] of the same compound?
The IC95 was 140 nM.

Which results are given for CCC(CCC[C@@H](CO)N(CCC(C)C)S(=O)(=O)c1ccc(N)cc1)NC(=O)[C@H](C(c1ccccc1)c1ccccc1)N(C)C(=O)OC (mixture of isomers) [Example F12, N{(5S)-5-[[(4-aminophenyl)sulfonyl](3-methylbutyl)amino]-1-ethyl-6-hydroxyhexyl}-Nα-(methoxycarbonyl)-Nα-methyl-β-phenyl-L-phenylalaninamide]?
IC50 (wild-type HIV-1 protease): 2.11 nM; IC95 [1, 2]: 325 nM

COC(=O)N[C@H](C(=O)N[C@H](C)CCC[C@@H](CO)N(CCC(C)C)S(=O)(=O)c1ccc(N)cc1)C(c1ccccc1)c1ccccc1 (single isomer, unassigned) [D1(S)] was tested. Which IC50 (wild-type HIV-1 protease) did it give?
Its IC50 is 0.008 nM.

What about the IC95 [1, 2] of the same compound?
The IC95 was 7 nM.

What does the source list for COC(=O)N[C@H](C(=O)NC(CO)CCCC(CO)N(CCC(C)C)S(=O)(=O)c1ccc(N)cc1)C(c1ccccc1)c1ccccc1 (single isomer, unassigned) [Example M1-7A, N-[(1R or 1S,5R or 5S)-5-[[(4-aminophenyl)sulfonyl](3-methylbutyl)amino]-6-hydroxy-1-(hydroxymethyl)hexyl]-Nα-(methoxycarbonyl)-β-phenyl-L-phenylalaninamide]?
IC50 (wild-type HIV-1 protease): 0.349 nM; IC95 [1, 2]: 302 nM

With COC(=O)N[C@H](C(=O)NC(CO)CCCC(CO)N(CCC(C)C)S(=O)(=O)c1ccc(N)cc1)C(c1ccccc1)c1ccccc1 (single isomer, unassigned) [Example M1-7B, N-[(1R or 1S, 5R or 5S)-5-[[(4-aminophenyl)sulfonyl](3-methylbutyl)amino]-6-hydroxy-1-(hydroxymethyl)hexyl]-Nα-(methoxycarbonyl)-β-phenyl-L-phenylalaninamide] as the compound, how does the IC50 (wild-type HIV-1 protease) read?
The IC50 was 0.013 nM.

And the IC95 [1, 3]?
Its IC95 is 230 nM.

What does the source list for COC(=O)N[C@H](C(=O)N[C@@H](C)CCC[C@@H](CO)N(CCC(C)C)S(=O)(=O)c1ccc(N)cc1)C(c1ccccc1)c1ccccc1 [D1(R), N-{(1S,5S)-5-[[(4-aminohenyl)sulfonyl](3-methylbutyl)amino]-6-hydroxy-1-methylhexyl}-Nα-(methoxycarbonyl)-β-phenyl-L-phenylalaninamide]?
IC50 (wild-type HIV-1 protease): 0.386 nM; IC95 [1, 3]: 98 nM

COC(=O)N[C@H](C(=O)NCCCC[C@@H](CN)N(CCC(C)C)S(=O)(=O)c1ccc(N)cc1)C(c1ccccc1)c1ccccc1 [Example A2, Methyl [(1S)-2-({6-amino-5-[[(4-aminophenyl)sulfonyl](3-methylbutyl)amino]-hexyl)amino)-1-(diphenylmethyl)-2-oxoethyl]carbamate] was tested. Which IC50 (wild-type HIV-1 protease) did it give?
Its IC50 is 5 nM.

What about the IC95 [1, 2] of the same compound?
The IC95 was 252 nM.

Which results are given for Cc1ccc(S(=O)(=O)N(CCC(C)C)[C@H](CO)CC(C)CCNC(=O)[C@@H](N)C(c2ccccc2)c2ccccc2)cc1 (stereo partly drawn) [Example B1, (2S)-2-amino-N-((5S)-6-hydroxy-3-methyl-5-{(3-methylbutyl)[(4-methylphenyl)-sulfonyl]amino}hexyl)-3,3-diphenylpropanamide]?
IC50 (wild-type HIV-1 protease): 0.51 nM; IC95 [1, 2]: 500 nM

How did the IC50 (wild-type HIV-1 protease) turn out when COC(=O)N[C@H](C(=O)NCCC(C)C[C@@H](CO)N(CCC(C)C)S(=O)(=O)c1ccc(C)cc1)C(c1ccccc1)c1ccccc1 (stereo partly drawn) [Example B2] was run?
Its IC50 is 0.52 nM.

And the IC95 [1, 3]?
The IC95 was 368 nM.

CC[C@@H](CCC[C@@H](CO)N(CCC(C)C)S(=O)(=O)c1ccc(N)cc1)NC(=O)[C@@H](NC(=O)OC)C(c1ccccc1)c1ccccc1 [Example D2] was tested. Which IC50 (wild-type HIV-1 protease) did it give?
Its IC50 is 0.016 nM.

What about the IC95 ([1]; Human immunodeficiency virus 1, T-lymphoid, read-out: Spread - IC95 (nM)) of the same compound?
Its IC95 is 10 nM.

How did the IC50 (wild-type HIV-1 protease) turn out when CC[C@@H](CCC[C@@H](CO)N(CCC(C)C)S(=O)(=O)c1ccc(N)c(F)c1)NC(=O)[C@@H](NC(=O)OC)C(c1ccccc1)c1ccccc1 [Example D3, N-{(1S,5S)-5-[[(4-amino-3-fluorophenyl)sulfonyl](3-methylbutyl)amino]-1-ethyl-6-hydroxyhexyl}-Nα-(methoxycarbonyl)-b-phenyl-L-phenylalaninamide] was run?
The IC50 was 0.054 nM.

And the IC95 [1, 2]?
Its IC95 is 12 nM.

COC(=O)N[C@@H](Cc1ccccc1Cl)C(=O)N[C@@H](C)CCC[C@@H](CN)N(CCC(C)C)S(=O)(=O)c1ccc(N)cc1 [Example D4, N-{(1S,5S)-6-amino-5-[[(4-aminophenyl)sulfonyl](3-methylbutyl)amino]-1-methylhexyl}-2-chloro-Nα-(methoxycarbonyl)-L-phenylalaninamide] was tested. Which IC50 (wild-type HIV-1 protease) did it give?
The IC50 was over 3 nM.

What about the IC95 [1, 2] of the same compound?
The IC95 was 270 nM.

Which results are given for COC(=O)N[C@H](C(=O)N[C@@H](C)CCC[C@@H](CO)N(CCC(C)C)S(=O)(=O)c1ccc2ncsc2c1)C(c1ccccc1)c1ccccc1 [Example D5, N-{(1S,5S)-5-[(1,3-benzothiazol-6-ylsulfonyl)(3-methylbutyl)amino]-6-hydroxy-1-methylhexyl}-Nα-(methoxycarbonyl)-β-phenyl-L-phenylalaninamide]?
IC50 (wild-type HIV-1 protease): 0.042 nM; IC95 [1, 2]: 9 nM

Which IC50 (wild-type HIV-1 protease) does the source give for CCC[C@@H](CCC[C@@H](CO)N(CCC(C)C)S(=O)(=O)c1ccc(N)cc1)NC(=O)[C@@H](NC(=O)OC)C(c1ccccc1)c1ccccc1 [Example D6, N-{(1S,5S)-5-[[(4-aminophenyl)sulfonyl](3-methylbutyl)amino]-6-hydroxy-1-propylhexyl}-Nα-(methoxycarbonyl)-β-phenyl-L-phenylalaninamide] here?
The IC50 was 0.106 nM.

And the IC95 [1, 2]?
The IC95 was 56 nM.

What does the source list for COC(=O)N[C@@H](Cc1ccccc1Cl)C(=O)N[C@@H](C)CCC[C@@H](CO)N(CCC(C)C)S(=O)(=O)c1ccc(N)cc1 [Example D7, N-{(1S,5S)-5-[[(4-aminophenyl)sulfonyl](3-methylbutyl)amino]-6-hydroxy-1-methylhexyl}-2-chloro-Nα-(methoxycarbonyl)-L-phenylalaninamide]?
IC50 (wild-type HIV-1 protease): 0.064 nM; IC95 [1, 2]: 19 nM

For COC(=O)N[C@@H](Cc1ccccc1Cl)C(=O)N[C@@H](C)CCC[C@@H](CO)N(CC(C)C)S(=O)(=O)c1ccc(N)cc1 [Example D8, N-{(1S,5S)-5-[[(4-aminophenyl)sulfonyl](isobutyl)amino]-6-hydroxy-1-methylhexyl}-2-chloro-Nα-(methoxycarbonyl)-L-phenylalaninamide], which IC50 (wild-type HIV-1 protease) is on record?
The IC50 was 0.327 nM.

And the IC95 [1, 2]?
The IC95 was 46 nM.

Which results are given for COC(=O)N[C@H](C(=O)N[C@@H](C)CCC[C@@H](CO)N(CC(C)C)S(=O)(=O)c1ccc(N)cc1)C(c1ccccc1)c1ccccc1 [Example D9, N-{(1S,5S)-5-[[(4-aminophenyl)sulfonyl](isobutyl)amino]-6-hydroxy-1-methylhexyl}-Nα-(methoxycarbonyl)-β-phenyl-L-phenylalaninamide]?
IC50 (wild-type HIV-1 protease): 0.035 nM; IC95 [1, 2]: 8 nM

What does the source list for COC(=O)N[C@H](C(=O)N[C@H](CCC[C@@H](CO)N(CCC(C)C)S(=O)(=O)c1ccc(N)cc1)C(C)C)C(c1ccccc1)c1ccccc1 [Example D10, N-{(1R,5S)-5-[[(4-aminophenyl)sulfonyl](3-methylbutyl)amino]-6-hydroxy-1-isopropylhexyl}-Nα-(methoxycarbonyl)-β-phenyl-L-phenylalaninamide]?
IC50 (wild-type HIV-1 protease): 0.099 nM; IC95 [1, 2]: 37 nM

CC[C@@H](CCC[C@@H](CO)N(CC(C)C)S(=O)(=O)c1ccc(N)cc1)NC(=O)[C@@H](NC(=O)OC)C(c1ccccc1)c1ccccc1 [Example D11, N-{(1S,5S)-5-[[(4-aminophenyl)sulfonyl](isobutyl)amino]-1-ethyl-6-hydroxyhexyl}-Nα-(methoxycarbonyl)-β-phenyl-L-phenylalaninamide] was tested. Which IC50 (wild-type HIV-1 protease) did it give?
Its IC50 is 0.109 nM.

What about the IC95 [1, 2] of the same compound?
The IC95 was 18 nM.

How did the IC50 (wild-type HIV-1 protease) turn out when COC(=O)N[C@H](C(=O)N[C@@H](C)CCC[C@@H](CO)N(CCC(C)C)S(=O)(=O)c1ccc(N)c(F)c1)C(c1ccccc1)c1ccccc1 [Example D12, N-{(1S,5S)-5-[[(4-amino-3-fluorophenyl)sulfonyl](3-methylbutyl)amino]-6-hydroxy-1-methylhexyl}-Nα-(methoxycarbonyl)-β-phenyl-L-phenylalaninamide] was run?
Its IC50 is 0.012 nM.

And the IC95 [1, 2]?
The IC95 was 6 nM.

Which IC50 (wild-type HIV-1 protease) does the source give for CCC[C@@H](CCC[C@@H](CO)N(CCCF)S(=O)(=O)c1ccc(N)cc1)NC(=O)[C@@H](NC(=O)OC)C(c1ccccc1)c1ccccc1 [Example D13, N-{(1S,5S)-5-[[(4-aminophenyl)sulfonyl](3-fluoropropyl)amino]-6-hydroxy-1-propylhexyl}-Nα-(methoxycarbonyl)-β-phenyl-L-phenylalaninamide] here?
Its IC50 is 0.867 nM.

What about the IC95 [1, 2] of the same compound?
Its IC95 is 213 nM.

With COC(=O)N[C@H](C(=O)N[C@H](CCC[C@@H](CO)N(CC(C)C)S(=O)(=O)c1ccc(N)cc1)C(C)C)C(c1ccccc1)c1ccccc1 [Example D14, N-{(1R,5S)-5-[[(4-aminophenyl)sulfonyl](isobutyl)amino]-6-hydroxy-1-isopropylhexyl}-Nα-(methoxycarbonyl)-β-phenyl-L-phenylalaninamide] as the compound, how does the IC50 (wild-type HIV-1 protease) read?
Its IC50 is 0.519 nM.

And the IC95 [1, 2]?
Its IC95 is 95 nM.

Which IC95 [1, 2] does the source give for COC(=O)N[C@H](C(=O)N[C@@H](C)CCC[C@@H](CO)N(C(C)C)S(=O)(=O)c1ccc(N)cc1)C(c1ccccc1)c1ccccc1 [Example F1, N-{(1S,5S)-5-[[(4-aminophenyl)sulfonyl](isopropyl)amino]-6-hydroxy-1-methylhexyl}-Nα-(methoxycarbonyl)-β-phenyl-L-phenylalaninamide] here?
The IC95 was 32 nM.
